Experiments:
mouse C57BL/6 T cells = test: pSTAT1 signaling in IFNα-stimulated T cells, flow cytometry; format: cell-based; conditions: T-cell, 10 uM compound, T cells stimulated for 5 hours by IFNα, read-out: % pSTAT1 in cells treated with subject compounds relative to negative control (DMSO)
Description: IFNα signaling in mouse C57BL/6 T cells promotes activation of multiple signaling pathways associated with antitumor responses. A key target of this signaling is phosphorylation of the transcription factor STAT1. […] T cells are stimulated for 5 hours by IFNα in the presence or absence of exemplified compounds disclosed herein (e.g., PTPN2 inhibitors) and stained intracellularly with antibodies for phosphorylated STAT1 and then analyzed by flow cytometry. Enhancement of phosphorylation of STAT1 is read out as a percentage over the DMSO control.

PTPN2 = molecular target: T1, PTPN2 (Homo sapiens, UniProt P17706); test: Phosphatase activity assay (Bio-Biochem-DiFMUP), PTPN2; format: biochemical; conditions: DiFMUP substrate, room temperature
T1 sequence (P17706 1-415): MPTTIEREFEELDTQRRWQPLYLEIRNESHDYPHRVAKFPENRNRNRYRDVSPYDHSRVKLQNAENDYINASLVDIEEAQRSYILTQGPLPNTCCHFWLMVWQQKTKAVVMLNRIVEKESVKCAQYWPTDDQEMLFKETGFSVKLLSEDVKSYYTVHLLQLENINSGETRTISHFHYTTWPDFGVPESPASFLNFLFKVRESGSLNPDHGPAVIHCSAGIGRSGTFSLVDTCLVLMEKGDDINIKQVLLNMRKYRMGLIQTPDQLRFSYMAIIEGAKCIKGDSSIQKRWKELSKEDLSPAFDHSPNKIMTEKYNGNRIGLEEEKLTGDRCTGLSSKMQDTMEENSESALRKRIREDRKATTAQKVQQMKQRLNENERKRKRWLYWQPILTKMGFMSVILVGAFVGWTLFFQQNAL
Summary of the method: (§1)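 Buffer was 50 mM Bis-Tris pH 6.3, 2 mM EDTA, 5 mM DMH, with 10 μM FDP or DiFMUP substrate, enzyme added last, at room temperature. Fluorescent product was read continuously for 15–30 min (DiFMU ex 360/em 450 nm; FMP ex 440/em 530 nm). Initial rates against 10-point inhibitor series were fitted with a 4-parameter equation to give IC50.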

PTP1B = molecular target: T2, PTP1B (Homo sapiens, UniProt P18031); test: Phosphatase activity assay (Bio-Biochem-DiFMUP), PTP1B; format: biochemical; conditions: DiFMUP substrate, room temperature
T2 sequence (P18031 1-435): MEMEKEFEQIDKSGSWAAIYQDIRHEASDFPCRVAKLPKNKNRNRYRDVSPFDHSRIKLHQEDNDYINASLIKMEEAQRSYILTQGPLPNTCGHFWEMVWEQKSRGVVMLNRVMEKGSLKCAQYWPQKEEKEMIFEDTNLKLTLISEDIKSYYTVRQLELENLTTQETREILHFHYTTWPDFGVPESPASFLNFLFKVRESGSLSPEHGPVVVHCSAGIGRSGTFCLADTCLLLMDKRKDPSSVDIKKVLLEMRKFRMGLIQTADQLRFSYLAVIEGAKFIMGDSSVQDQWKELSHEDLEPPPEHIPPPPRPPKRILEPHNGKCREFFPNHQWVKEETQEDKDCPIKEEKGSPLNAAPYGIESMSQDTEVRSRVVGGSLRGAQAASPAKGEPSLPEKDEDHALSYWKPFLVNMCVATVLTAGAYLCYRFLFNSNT
Summary of the method: as §1

[1] = tested on: C57B3L/6 mouse primary T cells; test: T-cell activation: CD25 expression on primary T cells stimulated with anti-CD3/CD28; format: cell-based; conditions: 10 uM compound, primary T cells stimulated with antibodies to CD3 and CD28
Description: The increase of T cell activation and most importantly T cell function is a strategy for novel immune oncology approaches to promote tumor immunity. In vitro assays using wildtype C57B3L/6 mouse primary T cells are commonly used to assess the impact of compound on T cell activation and function. To assess the ability of compounds disclosed here (e.g., PTPN2 inhibitors) to stimulate T cell activation, primary T cells stimulated with antibodies to CD3 and CD28 are treated with or without exemplary compounds (at 10 uM) disclosed herein are stained with antibodies directed to T-cell activation markers, such as CD25. Additional markers including without limitation CD69, SLAMF6, TIM3, and PD1 can also be employed as a proxy for T cell activation.

[2] = tested on: B16F10 mouse melanoma cells; test: MHC expression associated with IFNγ signaling, flow cytometry; format: cell-based; conditions: B16-F10, 3 uM compound, 48 hours, normalized to DMSO/with IFNγ control, read-out: % MHC in cells treated with Compound at 3 uM relative to negative control (DMSO)
Description: B16F10 mouse melanoma cells (ATCC Cat #CRL-6475, Manassas, VA) are seeded at approximately a density of 500 cells per well in a 384-well clear bottom plate (Corning Cat #3765, Corning, 5 NY) in 25 μL total volume of DMEM+10% FBS (Sigma Cat #D6429 and Sigma Cat #F4135, St. Louis, MO). Cells are allowed to adhere overnight at 37° C.+5% CO2. On the following day, 12.5 μL of mouse IFNγ (RD systems Cat #485-MI/CF, Minneapolis, MN) is added to half of the plate (columns 13-24) at a concentration of 2 ng/mL for a final assay concentration of 0.5 ng/mL of IFNγ. Media only (12.5 μL of DMEM+10% FBS) is added to the remainder of the 10 plate (columns 1-12). Next, compounds resuspended in DMSO (Sigma Cat #D2650) at 100 mM are diluted in semi-log dilutions in DMSO ranging from 100 mM to 0.001 mM and DMSO only controls are included. The compound/DMSO dilutions are further diluted 1:250 in DMEM+10% FBS, and 12.5 μL of these dilutions are added in triplicates to cells of both treatment arms (with and without IFNγ). Compounds are only dosed in the inner 240 wells, avoiding the outer 2-well perimeter of the plate to minimize edge effects. Finally, the plate is loaded into an IncuCyte® S3 Live Cell Analysis System (Essen Bioscience-Sartorius, Ann Arbor, MI) maintained in a 37° C.+5% CO2 incubator, allowed to equilibrate for 2 hours, and treated for 48 hours. MHC levels are measured by flow cytometry using a FITC anti-mouse H-2kb antibody (clone AF6-88.5), and levels are normalized based on DMSO/with IFNγ control. Table 7 below summarizes the percentage in MHC expression in cells treated with or without compounds disclosed herein at a specified concentration.

[3] = mouse PK PO (oral pharmacokinetics, Compound A vs. Reference CMPD); format: in vivo; conditions: identical oral dosing
Description: (§2) Furthermore, an AUCfinal for Compound A was measured to be 356% that of the Reference CMPD measured in the same manner and at the same time in the same mouse model. […] Furthermore, an AUCfinal for Compound A was measured to be 224% that of the Reference CMPD measured in the same manner and at the same time in the same rat model.

[4] = Rat PK PO (oral pharmacokinetics, Compound A vs. Reference CMPD); format: in vivo; conditions: identical oral dosing
Description: as §2

B16F10 cells [5] = test: Tumor infiltrating lymphocyte exhaustion assay; format: in vivo, mouse; conditions: Day 7 post dosing, B16F10 tumors in C57BL/6 mice
Text: The same mouse model is utilized to assess the amount of tumor infiltrating lymphocytes when treated with or without an exemplary compound A of the present disclosure. C57BL/6 mice were implanted with 5*10^5 B16F10 cells formulated in Matrigel via the subcutaneous route. After tumors reached a size of 50-150 mm^3, mice were randomized. 7 days post randomization, tumor cells were processed on a GentleMACS octo dissociator and stained for exhaustion markers using a panel of antibodies: Live/Dead, CD45.1, CD8, TIM-3, PD-1, SLAMF6, CD11b, CD38. In parallel, splenocytes were stained with the same cocktail of antibodies and analyzed by flow cytometry. […] PTPN2 inhibitors are tested in the described TIL exhaustion assay to measure modulation of exhaustion in the tumor microenvironment.

B16F10 cells [6] = test: In vivo efficacy in B16F10 mouse tumor model; conditions: B16F10 in female C57BL/6 mice, oral BID, 100 or 300 mg/kg/dose
Description: Cells are grown to passage 3 in vitro. A total of 1 to 5×10^5 viable B16F10 cells are inoculated subcutaneously into the right flank of female C57BL/6 mice (7-12 weeks old) on Day 0. The injection volume is 0.1 mL and is composed of a 1: 1 mixture of S-MEM and Matrigel® (Corning, NY, USA). The mean tumor volume (TV) at randomization is approximately 100-200 mm^3. Following randomization, treatments are initiated on the same day. Dosing of mice is conducted orally, twice a day (BID). Mice are dosed (100 mg/kg/dose or 300 mg/kg/dose) with a compound described herein or vehicle controls. Tumor volume is calculated three times weekly. Measurements of the length (L) and width (W) of the tumor are taken via electronic caliper and the volume is calculated according to the following equation: V=L×W^2/2. Tumor growth inhibition (TGI) is calculated as TGI=1−(Mean TV Timepoint(Treatment)/MeanTV Timepoint (Vehicle)) for each timepoint that tumor volumes are measured and depicted in FIG. 3.

[7] = mouse PK PO, relative to Reference CMPD of WO2019/246513
[8] = Rat PK PO, relative to Reference CMPD of WO2019/246513

Compound	activity at 10 µM (mouse C57BL/6 T cells) [%]	IC50 (PTPN2) [µM]	IC50 (PTP1B) [µM]	% CD25 expression in cells treated with subject compounds relative to negative control (DMSO) [1] [%]	other results
CC(C)Nc1cc2c(F)c(N3CC(=O)NS3(=O)=O)c(O)cc2n(C2CC2)c1=O [Compound 133]	170	≤ 1	≤ 1	–	–
CC(C)CCOc1cc2c(F)c(N3CC(=O)NS3(=O)=O)c(O)cc2n(C)c1=O [Compound 136, 5-(5-fluoro-7-hydroxy-3-(isopentyloxy)-1-methyl-2-oxo-1,2-dihydroquinolin-6-yl)-1,2,5-thiadiazolidin-3-one 1,1-dioxide]	131	≤ 1	≤ 1	–	–
CC(C)Nc1cc2c(F)c(N3CC(=O)NS3(=O)=O)c(O)cc2n(C)c1=O [Compound 165]	139	≤ 1	≤ 1	–	–
O=C1CN(c2c(O)cc3c(cc(NC4CCCC4)c(=O)n3C3CC3)c2F)S(=O)(=O)N1 [Compound 185]	181	≤ 1	≤ 1	–	–
CC(C)Oc1ccc2cc(O)c(N3CC(=O)NS3(=O)=O)c(F)c2n1 [Compound 192]	183	≤ 1	≤ 1	375	–
O=C1CN(c2c(O)cc3ccc(OC(F)F)nc3c2F)S(=O)(=O)N1 [Compound 197]	196	≤ 1	≤ 1	436	activation at 3 µM [2]: > 10%
O=C1CN(c2c(O)cc3ccc(OC4CCC4)nc3c2F)S(=O)(=O)N1 [Compound 205]	–	≤ 1	≤ 1	423	–
COc1ccc2cc(O)c(N3CC(=O)NS3(=O)=O)c(F)c2n1 [Compound A]	–	–	–	–	% F, Compound A vs. Reference CMPD ((Compound A/Reference CMPD) × 100%) [3, 7]: 195%; AUClast, Compound A vs. Reference CMPD ((Compound A/Reference CMPD) × 100%) [3, 7]: 356%; Cmax, Compound A vs. Reference CMPD ((Compound A/Reference CMPD) × 100%) [3, 7]: 495%; AUCfinal of Compound A as % of that of the Reference CMPD ([3]; mouse pharmacokinetic model, relative to Reference CMPD): 356%; % F, Compound A vs. Reference CMPD ((Compound A/Reference CMPD) × 100%) [4, 8]: 208%; AUClast, Compound A vs. Reference CMPD ((Compound A/Reference CMPD) × 100%) [4, 8]: 224%; Cmax, Compound A vs. Reference CMPD ((Compound A/Reference CMPD) × 100%) [4, 8]: 155%; AUCfinal of Compound A as % of that of the Reference CMPD ([4]; rat pharmacokinetic model, relative to Reference CMPD): 224%; CD38+/CD11b+ “M1” Macrophages (B16F10 cells [5]): increase; TIM3+/PD1+ T cells (B16F10 cells [5]): increase; Tumor volume / tumor growth inhibition (FIG. 3) (B16F10 cells [6]): apparent tumor stasis and shrinkage
